Laboratory results: patent publication US20250340561A1, “QUINAZOLINE COMPOUND FOR INDUCING DEGRADATION OF G12D MUTANT KRAS PROTEIN” (Astellas Pharma Inc., priority 2021, published 2025)
Like-named read-outs stand apart in the source and are kept apart here.

What was measured:
[1] = tested on: human G12D mutant KRAS-positive pancreatic cancer line AsPC-1; experiment: Test Example 3: non-anchorage-dependent cell growth inhibition, spheroid 3D cell culture; format: cell-based; details: AsPC-1 spheroid 3D culture, 6 days, CellTiter Glo 2.0
Experimental: Test Example 3: Evaluation of Non-Anchorage-Dependent Cell Growth Inhibition Action on Human G12D Mutant KRAS-Positive Pancreatic Cancer Line AsPC-1
The non-anchorage-dependent cell growth inhibition action of test compounds was evaluated by spheroid 3D cell culture.
AsPC-1 cells were seeded on a low-cell-adhesive round bottom 384-well plate (PrimeSurface: from Sumitomo Bakelite) at 36 μL/well to give 5×10^2 cells per well. The cell culture was performed under the same conditions as in the Test Example 2.
The next day, the test compounds (6 points having final concentrations in the range of 10 μM to 3.0 nM) and DMSO, which was the solvent for the test compounds, as a negative control were diluted 100-fold with a fresh medium and were added at 4 μL per well. After culturing in the presence of […] at 37° C. for 6 days, CellTiter Glo 2.0 (from Promega) was added at 20 μL per well. After stirring with a plate mixer (from FINEPCR) at normal temperature for 1 hour, the luminescent signals were measured with ARVO X3 (from PerkinElmer).
With the signaling value in treatment with DMSO taken as […] and with the signaling value in the medium alone without cells taken as […], the […] inhibition values (IC50) were calculated by Sigmoid-Emax model nonlinear regression analysis. The molecular weights of the test compounds were calculated as the molecular weights of the dihydrochloride for Example No. 22, the trihydrochlorides for Example Nos. 2-7, 9-12, 14-18 and 30, the tetrahydrochlorides for Example Nos. 19 and 46, the pentahydrochloride for Example No. 21 and the free forms forming no salt for the remaining Example Nos. The results for some test compounds of the formula (I) are shown in Table 4.

[2] = tested on: phosphorylation of ERK (Thr202/Tyr204); experiment: Test Example 2: ERK phosphorylation inhibition action in AsPC-1, Cell ELISA; format: cell-based, human; details: AsPC-1 cells, 0% = 1 μM trametinib
Experimental: Test Example 2: Evaluation of ERK Phosphorylation Inhibition Action on Human G12D Mutant KRAS-Positive Pancreatic Cancer Line AsPC-1
The ERK phosphorylation inhibition action of test compounds was evaluated by measuring phosphorylation of the 202th threonine (Thr202) and the 204th tyrosine (Tyr204) of ERK located downstream of the KRAS signal by Cell ELISA.
AsPC-1 cells were seeded on a 384-well plate (from Greiner bio-one) at 36 μL/well to give 2.0×10^4 cells per well. As for the cell culture conditions, a RPMI 1640 medium containing 10% fetal bovine serum was used in the presence of 5% CO2 at 37° C.
The next day, the test compounds (6 points having final concentrations in the range of 10 μM to 3.0 nM), trametinib (MEK inhibitor) of a final concentration of 1 μM as a positive control and DMSO, which was the solvent for the test compounds, as a negative control were diluted 100-fold with a fresh medium and were added at 4 μL per well. The cells were then cultured for 24 hours. After culturing, a 30% glyoxal solution (40% glyoxal [from Nacalai Tesque] was diluted with PBS) was quickly added at 30 μL per well, and the plate was allowed to stand for 90 minutes at room temperature to thus immobilize the cells. Then, the plate was centrifuged to remove the supernatant (using a centrifugal dehydrator machine, the supernatant was removed by the same method hereinafter), and 0.1% Triton X-100-containing PBS was added at 20 μL per well. After allowing to stand for 10 minutes at room temperature, the supernatant was removed by centrifugation, and the same operation was further repeated. Next, 0.5% SDS-containing PBS was added at 20 μL per well, and after allowing to stand at room temperature for 30 minutes, the supernatant was removed by centrifugation. Subsequently, a blocking solution (Intercept Blocking Buffer) was added at 20 μL per well, and the plate was allowed to stand for 1 hour at room temperature. The supernatant was removed by centrifugation, and an ERK (Thr202/Tyr204) phosphorylation antibody (Phospho-p44/42 MAPK (Erk 1/2) (Thr202/Tyr204) (D13.14.4E) XP Rabbit mAb; from Cell Signaling Technology) diluted 2,500-fold with a blocking solution was added at 10 or 15 μL per well as a primary antibody. The plate was allowed to stand at 4° C. overnight.
The next day, the plate was centrifuged to remove the supernatant. 0.05% Tween-20-containing PBS was added at 50 μL per well, and the supernatant was removed by centrifugation to thus wash each well. The washing was performed three times in total. After washing, Goat anti-Rabbit IgG H&L (IRDye 800CW) diluted 1,000-fold with a blocking solution was added at […] as a secondary antibody, and the plate was allowed to stand for 1 hour at room temperature. The plate was centrifuged to remove the supernatant, and each well was washed three times with 0.05% Tween-20-containing PBS in the same manner as after the primary antibody reaction. After removing the supernatant by centrifuging the plate, the plate was dried as it was with air at room temperature for 3 hours or more, and the 800-nm fluorescent signals were measured with Aerius.
With the signaling value at the time of addition of DMSO taken as 100% and with the signaling value at the time of addition of 1 μM trametinib taken as 0%, the 50% inhibition values (IC50) were calculated by Sigmoid-Emax model nonlinear regression analysis. The molecular weights of the test compounds were calculated as the molecular weights of the dihydrochloride for Example No. 22, the trihydrochlorides for Example Nos. 2-7, 9-12, 14-18 and 30, the tetrahydrochlorides for Example Nos. 19 and 46, the pentahydrochloride for Example No. 21 and the free forms forming no salt for the remaining Example Nos. The results for some test compounds of the formula (I) are shown in Table 3.

[3] = Homo sapiens, ASPC1, 144 h, read-out: IC50
[4] = Homo sapiens, ASPC1, 24 h, read-out: IC50

Structure (SMILES) | IC50 ([1]; Homo sapiens, ASPC1, 144 h) [nM] | IC50 ([2]; Homo sapiens, ASPC1, 24 h) [nM] | also measured
Cc1c(F)cc2[nH]ncc2c1-c1c(C2CC2)cc2c(N3C[C@@H]4C[C@H]3CN4)nc(OC3CCOCC3)nc2c1OCc1ccc(-c2cn([C@H](C(=O)N3C[C@H](O)C[C@H]3C(=O)N[C@@H](CO)c3cccc(S(C)(=O)=O)c3)C(C)C)nn2)cc1 [Example 67] | – | – | IC50 [1, 3]: 975 nM; IC50 [2, 4]: 758 nM
Cc1ncsc1-c1ccc([C@H](CO)NC(=O)[C@@H]2C[C@@H](O)CN2C(=O)[C@H](C(C)C)n2cc(-c3ccc(COc4c(-c5c(C)c(F)cc6[nH]ncc56)c(C5CC5)cc5c(N6C[C@@H]7C[C@H]6CN7)nc(OC[C@@H]6CCCN6C)nc45)cc3)nn2)cc1 [Example 57] | – | – | IC50 [1, 3]: 90 nM; IC50 [2, 4]: 65 nM
Cc1ncsc1-c1ccc([C@H](CO)NC(=O)[C@@H]2C[C@@H](O)CN2C(=O)[C@H](C(C)C)n2cc(-c3ccc(COc4c(-c5c(C)c(F)cc6[nH]ncc56)c(C5CC5)cc5c(N6C[C@@H]7C[C@H]6CN7)nc(OCC6(CO)CCOCC6)nc45)cc3)nn2)cc1 (atropisomer, axis not shown) [Example 36] | 24 | 31 | –
Cc1ncsc1-c1ccc([C@H](CO)NC(=O)[C@@H]2C[C@@H](O)CN2C(=O)[C@H](C(C)C)n2cc(-c3ccc(COc4c(-c5c(C)c(F)cc6[nH]ncc56)c(C5CC5)cc5c(N6C[C@@H]7C[C@H]6CN7)nc(OC6CCOCC6)nc45)cc3)nn2)cc1 [Example 8, (4R)-1-[(2S)-2-(4-{4-[({6-cyclopropyl-4-[(1S,4S)-2,5-diazabicyclo[2.2.1]heptan-2-yl]-7-(6-fluoro-5-methyl-1H-indazol-4-yl)-2-[(oxan-4-yl)oxy]quinazolin-8-yl}oxy)methyl]phenyl}-1H-1,2,3-triazol-1-yl)-3-methylbutanoyl]-4-hydroxy-N-{(1R)-2-hydroxy-1-[4-(4-methyl-1,3-thiazol-5-yl)phenyl]ethyl}-L-prolinamide] | – | – | IC50 ([1]; read-out: IC50): 23 nM; IC50 ([2]; 24 hours, read-out: IC50): 15 nM
Cc1ncsc1-c1ccc([C@H](CO)NC(=O)[C@@H]2C[C@@H](O)CN2C(=O)[C@H](C(C)C)n2cc(-c3ccc(COc4c(-c5c(C)c(F)cc6[nH]ncc56)c(C5CC5)cc5c(N6C[C@@H]7C[C@H]6CN7)nc(O[C@H](C)CN6CCOCC6)nc45)cc3)nn2)cc1 [Example 45] | 20 | 11 | –
Cc1ncsc1-c1ccc([C@H](CO)NC(=O)[C@@H]2C[C@@H](O)CN2C(=O)[C@H](C(C)C)n2cc(-c3ccc(COc4c(-c5c(C)c(F)cc6[nH]ncc56)c(C5CC5)cc5c(N6C[C@@H]7C[C@H]6CN7)nc(O[C@@H](C)[C@H](C)O)nc45)cc3)nn2)cc1 [Example 42] | 46 | 22 | –
Cc1ncsc1-c1ccc([C@H](CF)NC(=O)[C@@H]2C[C@@H](O)CN2C(=O)[C@H](C(C)C)n2cc(-c3ccc(COc4c(-c5c(C)c(F)cc6[nH]ncc56)c(C5CC5)cc5c(N6C[C@@H]7C[C@H]6CN7)nc(OC6CCOCC6)nc45)cc3)nn2)cc1 [Example 17] | – | – | IC50 [1, 3]: 104 nM; IC50 [2, 4]: 36 nM
CC[C@@H](C)Oc1nc(N2C[C@@H]3C[C@H]2CN3)c2cc(C3CC3)c(-c3c(C)c(F)cc4[nH]ncc34)c(OCc3ccc(-c4cn([C@H](C(=O)N5C[C@H](O)C[C@H]5C(=O)N[C@@H](CO)c5ccc(-c6scnc6C)cc5)C(C)C)nn4)cc3)c2n1 [Example 43] | 16 | 11 | –
CO[C@H](C)COc1nc(N2C[C@@H]3C[C@H]2CN3)c2cc(C3CC3)c(-c3c(C)c(F)cc4[nH]ncc34)c(OCc3ccc(-c4cn([C@H](C(=O)N5C[C@H](O)C[C@H]5C(=O)N[C@@H](CO)c5ccc(-c6scnc6C)cc5)C(C)C)nn4)cc3)c2n1 [Example 47] | 22 | 18 | –
Cc1ncsc1-c1ccc(C2(NC(=O)[C@@H]3C[C@@H](O)CN3C(=O)[C@@H](NC(=O)c3ccc(COc4c(-c5c(C)c(F)cc6[nH]ncc56)c(C5CC5)cc5c(N6C[C@@H]7C[C@H]6CN7)nc(OC6CCOCC6)nc45)cc3)C(C)C)CC2)cc1 [Example 1] | 190 | 89 | –
Cc1ncsc1-c1ccc([C@H](CO)NC(=O)[C@@H]2C[C@@H](O)CN2C(=O)[C@H](C(C)C)n2cc(-c3ccc(COc4c(-c5c(C)c(F)cc6[nH]ncc56)c(C5CC5)cc5c(N6C[C@@H]7C[C@H]6CN7)nc(OC[C@H]6CCOC6)nc45)cc3)nn2)cc1 [Example 51] | 27 | 14 | –
Cc1ncoc1-c1ccc([C@H](CO)NC(=O)[C@@H]2C[C@@H](O)CN2C(=O)[C@H](C(C)C)n2cc(-c3ccc(COc4c(-c5c(C)c(F)cc6[nH]ncc56)c(C5CC5)cc5c(N6C[C@@H]7C[C@H]6CN7)nc(OC6CCOCC6)nc45)cc3)nn2)cc1 [Example 38] | 27 | 28 | –
Cc1c(F)cc2[nH]ncc2c1-c1c(C2CC2)cc2c(N3C[C@@H]4C[C@H]3CN4)nc(OC3CCOCC3)nc2c1OCc1ccc(-c2cn([C@H](C(=O)N3C[C@H](O)C[C@H]3C(=O)N[C@@H](CO)c3ccccc3)C(C)C)nn2)cc1 (atropisomer, axis not shown) [Example 14] | 153 | 63 | –
Cc1ncsc1-c1ccc([C@H](CO)NC(=O)[C@@H]2C[C@@H](O)CN2C(=O)[C@H](C(C)C)n2cc(-c3ccc(COc4c(-c5c(C)c(F)cc6[nH]ncc56)c(C5CC5)cc5c(N6C[C@@H]7C[C@H]6CN7)nc(OCC6(CO)CC6)nc45)cc3)nn2)cc1 [Example 61] | 61 | 24 | –
Cc1ncsc1-c1ccc([C@H](CO)NC(=O)[C@@H]2C[C@@H](O)CN2C(=O)[C@H](C(C)C)n2cc(-c3ccc(COc4c(-c5c(C)c(F)cc6[nH]ncc56)c(C5CC5)cc5c(N6C[C@@H]7C[C@H]6CN7)nc(OCC67CCCN6CCC7)nc45)cc3)nn2)cc1 [Example 44] | 266 | 95 | –
Cc1ncsc1-c1ccc([C@H](CO)NC(=O)[C@@H]2C[C@@H](O)CN2C(=O)[C@@H](NC(=O)c2ccc(COc3c(-c4c(C)c(F)cc5[nH]ncc45)c(C4CC4)cc4c(N5C[C@@H]6C[C@H]5CN6)nc(OC5CCOCC5)nc34)cc2)C(C)C)cc1 [Example 3] | 108 | 62 | –
Cc1c(F)cc2[nH]ncc2c1-c1c(C2CC2)cc2c(N3C[C@@H]4C[C@H]3CN4)nc(OC3CCOCC3)nc2c1OCc1ccc(-c2cn([C@H](C(=O)N3C[C@H](O)C[C@H]3C(=O)N[C@@H](CO)c3ccc(-c4ccnn4C)cc3)C(C)C)nn2)cc1 [Example 22] | 27 | 12 | –
